Results published in PMC12118186 (2023).
Each block holds one molecule with its values, some of them ahead of it.

Legend:
[1] = tested on: SA1 (DNA, aptamer) ACGACCTGACTTCCCATGGGATCTTCACTTAAATGGTCGT; test: ThT fluorescence displacement titration; settings: 100 mM Na+, pH 6.0, 1 μM DNA; for binding: 1 mM Mg2+, MES, 2 μM thioflavin T, 30 μM compound
[2] = tested on: SA1 (DNA, aptamer) ACGACCTGACTTCCCATGGGATCTTCACTTAAATGGTCGT; test: ITC; settings: 100 mM Na+, 5 mM Mg2+; 10 mM MES, pH 6.0, 25°C; one-site fit; 20 μM aptamer
[3] = tested on: SA2 (DNA, aptamer) ACGACGGGGGACCGGAAACAAGTGCAAAACGCTTCGTCGT; test: ThT fluorescence displacement titration; settings: 100 mM Na+, 1 mM Mg2+ (Figure 2 legend; methods: 5 mM); 10 mM MES, pH 6.0; apparent; tracer 2 μM thioflavin T; signal change only about 20%
[4] = tested on: SA1 (DNA, aptamer) ACGACCTGACTTCCCATGGGATCTTCACTTAAATGGTCGT; test: fluorescence enhancement; settings: 100 mM Na+, 1 mM Mg2+ (Figure 2 legend; methods: 5 mM); 10 mM MES, pH 6.0; 1 μM DNA, 2 μM thioflavin T; described as nonspecific

binding [1]: weak
SMILES: O=C(O)c1ccc(O)cc1

Kd [2]: 26.7 ± 5.6 µM | Kd ([1]; 1 mM Mg2+ (Figure 2 legend; methods: 5 mM), 10 mM MES, apparent, tracer 2 μM thioflavin T): 5.8 µM | Kd [3]: 11 µM
SMILES: O=C(O)c1ccccc1O

binding [1]: no
SMILES: CC(=O)Oc1ccccc1C(=O)O

binding [4]: yes
SMILES: Cc1ccc2c(c1)sc(-c1ccc(N(C)C)cc1)[n+]2C
